The values below come from patent US7122321B2, “High throughput method for functionally classifying proteins identified using a genomics approach” (Johnson & Johnson Pharmaceutical Research & Development, …, priority 1997, dated 2006).

Assay [1] has as its target T1, D(II) FGFR1 (Homo sapiens, UniProt P11362).
T1 construct: domain II of the fibroblast growth factor receptor 1 (D(II)FGFR1); hexa-histidine (N); made in house; host or cells: E. coli (renatured from inclusion bodies)
T1 sequence (P11362 158-246 limits assumed): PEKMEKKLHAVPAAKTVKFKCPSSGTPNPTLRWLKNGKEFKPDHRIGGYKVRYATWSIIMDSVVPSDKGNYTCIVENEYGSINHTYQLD
The experiment in a line: functional probe library screen (microplate thermal shift assay) against D(II) FGFR1. The format is binding. To be noted: functional probe library Plate 1; for effect on thermal stability of D(II) FGFR1: 50 μM D(II) FGFR1. From the text: The compounds in functional probe library Plate 1 was also employed to generate an activity spectrum for D(II) FGFR1. D(II) FGFR1 was cloned and expressed in E. coli. Recombinant D(II) FGFR1 was renatured from inclusion bodies essentially as described (Wetmore, D. R. et al., Proc. Soc. Mtg., San Diego, Calif. (1994)), except that a hexa-histidine tag was included at the N-terminus to facilitate recovery by affinity chromatography on a Ni^2+ chelate column (Janknecht, R. et al., Natl. Acad Sci. USA 88:8972–8976 (1991)). D(II) FGFR1 was further purified on a heparin-sepharose column (Kan, M. et al., Science 259:1918–1921 (1993); Pantoliano, M. W. et al., Biochemistry 33:10229–10248 (1994)). Purity was >95%, as judged by SDS-PAGE. The D(II) FGFR1 protein was concentrated to 12 mg/mL (˜1 mM) and stored at 4° C.
Reactions were prepared in 96-well polycarbonate microtitre plate v-bottom wells. The final concentration of D(II) FGFR1 was 50 μM in […], pH 8 in each well of a 96-well polycarbonate microtitre plate.
The fluorescence emission was measured at 460 nm.

For assay [2], the system named is pigeon liver arylamine acetyltransferase. The experiment in a line: microplate thermal shift assay, arylamine acetyltransferase. To be noted: Arylamine Acetyl transferase. Format: binding.
Assay [3] has as its target T2, Bovine liver dihydrofolate reductase (Bos taurus, UniProt P00376).
T2 sequence (P00376 1-187): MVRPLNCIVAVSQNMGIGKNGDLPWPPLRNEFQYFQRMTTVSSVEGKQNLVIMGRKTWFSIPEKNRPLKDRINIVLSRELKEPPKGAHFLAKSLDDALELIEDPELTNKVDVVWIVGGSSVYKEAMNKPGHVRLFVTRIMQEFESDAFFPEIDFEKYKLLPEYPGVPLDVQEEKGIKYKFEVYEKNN
Briefly: microplate thermal shift assay, bovine DHFR. To be noted: for ΔTm of ligand complexed with DHFR: DHFR (cow), single ligand 10 mM. The format is binding. On the set-up: Bovine liver dihydrofolate reductase (DHFR, Sigma); purchased Sigma; host or cells: bovine liver.

For assay [4], the target named is T3, chicken liver dihydrofolate reductase (Gallus gallus, UniProt P00378).
T3 construct: chicken liver dihydrofolate reductase (DHFR, Sigma); purchased Sigma; host or cells: chicken liver
T3 sequence (P00378 1-189): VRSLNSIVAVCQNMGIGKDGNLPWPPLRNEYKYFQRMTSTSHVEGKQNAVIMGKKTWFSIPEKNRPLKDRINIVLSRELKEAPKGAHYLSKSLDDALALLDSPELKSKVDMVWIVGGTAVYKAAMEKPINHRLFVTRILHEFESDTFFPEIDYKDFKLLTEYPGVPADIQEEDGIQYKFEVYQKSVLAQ
The experiment in a line: microplate thermal shift assay, chicken DHFR. The conditions noted are these: for ΔTm of ligand complexed with DHFR: DHFR (chicken), single ligand 10 mM. The format is binding.

The target in assay [5] is T4, porcine liver formimino glutamic acid transferase (Sus scrofa, UniProt P53603).
T4 construct: porcine liver formimino glutamic acid transferase (FGT, Sigma); purchased Sigma; host or cells: porcine liver
T4 sequence (P53603 1-541): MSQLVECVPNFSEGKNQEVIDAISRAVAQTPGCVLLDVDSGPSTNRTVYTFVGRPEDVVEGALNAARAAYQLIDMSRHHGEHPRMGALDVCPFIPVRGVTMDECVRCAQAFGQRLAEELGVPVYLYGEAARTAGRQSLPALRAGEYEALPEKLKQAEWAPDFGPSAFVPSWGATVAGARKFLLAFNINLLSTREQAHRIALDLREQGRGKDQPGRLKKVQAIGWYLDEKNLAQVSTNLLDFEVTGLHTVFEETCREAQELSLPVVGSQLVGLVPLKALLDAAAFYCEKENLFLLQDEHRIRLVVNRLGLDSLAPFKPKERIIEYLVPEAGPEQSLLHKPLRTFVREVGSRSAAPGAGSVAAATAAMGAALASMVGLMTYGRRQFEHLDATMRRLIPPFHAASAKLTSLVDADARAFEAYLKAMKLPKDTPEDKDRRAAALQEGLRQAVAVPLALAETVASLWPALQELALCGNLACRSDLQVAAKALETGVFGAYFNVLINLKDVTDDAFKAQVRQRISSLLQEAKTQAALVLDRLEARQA
Briefly: microplate thermal shift assay, formimino glutamic acid transferase. The format is binding. To be noted: Formimino L-Glutamic acid Transferase. The protocol: Folic acid binding can be assayed using the microplate thermal shift assay. Bovine liver dihydrofolate reductase (DHFR, Sigma), chicken liver dihydrofolate reductase (DHFR, Sigma), pigeon liver arylamine acetyltransferase (ArAcT, Sigma), and porcine liver formimino glutamic acid transferase (FGT, Sigma) were each dissolved in Buffer A (50 mM HEPES, pH 7.5, 100 mM NaCl) to generate stock solutions at a final concentration of 2 mg/mL. Solutions of dihydrofolic acid (FAH2), methotrexate, nicotinamide adenine dinucleotide phosphate (NADP), were prepared by dissolving solid material into Buffer A immediately prior to use. Dapoxyl™ 12800 solution was prepared by diluting a stock of 20 mM Dapoxyl™, 12800 in dimethyl sulfoxide to the appropriate concentration in Buffer A.
For the thermal shift assay, four 10 μL aliquots of each assay mixture were dispensed into four wells located in different quadrants of an MJ Research 384-well thermocycler plate. 10 μL of mineral oil was then added to each of the four wells to prevent evaporation. Each data point shown was collected by heating the plate at the temperature shown for three minutes, followed by incubation at 25° C. for one minute, followed by UV illumination and collection of the data.

Assay [6] has as its target human α-thrombin (human) (UniProt P00734). The experiment in a line: microplate thermal shift assay, Kd at Tm, hirudin peptide binding thrombin in the presence of 200 µM heparin 5000.
The target is the same in assay [7]. Briefly: microplate thermal shift assay, Kd at 298 K estimated, hirudin peptide binding thrombin in the presence of 200 µM heparin 5000.
For assay [8] the target is unchanged. The experiment in a line: microplate thermal shift assay, Kd at 298 K estimated, hirudin peptide binding thrombin in the presence of 50 µM 3DP-4660.
Assay [9] has the same target. The experiment in a line: microplate thermal shift assay, 1 µM thrombin + 50 µM hirudin peptide alone.
Assay [10] has the same target. Briefly: microplate thermal shift assay, Kd at Tm, hirudin peptide binding thrombin in the presence of 50 µM 3DP-4660.
Assay [11] shares this target. Briefly: microplate thermal shift assay, 50 µM hirudin peptide added to thrombin in the presence of 200 µM heparin 5000 (shift against TH/Heparin 5000).
For assay [12] the target is unchanged. The experiment in a line: microplate thermal shift assay, 50 µM hirudin peptide added to thrombin in the presence of 50 µM 3DP-4660 (shift against TH/3dp-4660).
Assay [13] concerns Bovine muscle myosin. The experiment in a line: microplate thermal shift assay of ATP binding, myosin. The protocol: (§1) Bovine muscle myosin (Sigma), bovine heart 3′–5′ cAMP-dependent protein kinase (Sigma), and chicken muscle pyruvate kinase (Sigma) were each dissolved in Buffer A to generate stock solutions at a final concentration of 2 mg/mL. […] 10 μL of mineral oil was then added to each of the four wells to prevent evaporation. Each data point shown was collected by heating the plate at the temperatures shown for three minutes. For example, the plate was heated to a given temperature, and then allowed to cool to 25 ° C. for one minute, followed by UV illumination and collection of the data. Then the plate was heated to the next higher temperature, and so forth. UV illumination was performed using a long wavelength illumination at […]–420 nm, having a peak at 365 nm. Fluorescence was imaged using a CCD camera having a bandpass filter centered at 550 nm.

The target of assay [14] is T5, chicken muscle pyruvate kinase (Gallus gallus, UniProt P00548).
T5 construct: chicken muscle pyruvate kinase (Sigma); purchased Sigma; host or cells: chicken muscle
Briefly: microplate thermal shift assay of ATP binding, pyruvate kinase. To be noted: 10 mM, standard deviation in parentheses. As for the experimental part:
as §1

The target of assay [15] is T2, Bovine liver dihydrofolate reductase. The experiment in a line: microplate thermal shift assay, bovine DHFR. Format: binding. On the set-up: Kd; Kd; Tm of the thermal unfolding curve; control 47.2° C; control 50.8° C; ΔTm. The conditions noted are these: FIG. 12.
Assay [16] concerns the target T6, bovine heart 3′–5′ cAMP-dependent protein kinase (Bos taurus, UniProt P00517).
T6 construct: bovine heart 3′–5′ cAMP-dependent protein kinase (Sigma); purchased Sigma; host or cells: bovine heart
The experiment in a line: microplate thermal shift assay of ATP binding, cAMP-dependent protein kinase.

[17] abbreviates: Myosin, 10 mM, standard deviation in parentheses.

T5 sequence (P00548 whole entry): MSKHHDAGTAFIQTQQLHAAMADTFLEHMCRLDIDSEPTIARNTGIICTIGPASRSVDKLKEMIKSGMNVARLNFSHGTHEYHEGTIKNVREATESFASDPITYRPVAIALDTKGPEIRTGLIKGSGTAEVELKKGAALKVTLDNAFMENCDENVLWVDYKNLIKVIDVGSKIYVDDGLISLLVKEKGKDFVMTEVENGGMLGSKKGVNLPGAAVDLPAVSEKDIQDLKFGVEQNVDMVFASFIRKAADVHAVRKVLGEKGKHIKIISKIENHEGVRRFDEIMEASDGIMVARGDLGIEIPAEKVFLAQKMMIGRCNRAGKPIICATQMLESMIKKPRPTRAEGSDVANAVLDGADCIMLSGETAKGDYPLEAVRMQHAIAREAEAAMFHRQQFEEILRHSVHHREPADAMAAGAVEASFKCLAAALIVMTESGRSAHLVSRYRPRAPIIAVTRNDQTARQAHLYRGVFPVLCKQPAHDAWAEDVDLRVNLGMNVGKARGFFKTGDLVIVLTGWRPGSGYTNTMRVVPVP

In the case of `OC[C@@H](O)[C@H](O)[C@@H](O)CO` [xylitol], the “effect on thermal stability of D(II) FGFR1” value (from here on “effect on thermal stability”) in assay [1] is given as “stabilize”.
`OC[C@@H](O)[C@@H](O)[C@H](O)[C@@H](O)CO` [sorbitol]: in assay [1], the “effect on thermal stability” value is recorded as “stabilize”.
Take “nicotinamide adenine dinucleotide phosphate [NADP]”: the ΔTm was 2.8 (±0.4) in assay [2] (5 mM); 3.2 (±0.13) in assay [3] (DHFR (first row, reference Tm 52.47), 5 mM); 3.8 (±0.4) in [4] (DHFR (second row, reference Tm 56.6), 5 mM); 0.0 (±0.2) in assay [5] (5 mM). Moreover, the figures for the “ΔTm of ligand complexed with DHFR” value in assay [3] and in assay [4] were 6.3 degrees and 7.5 degrees, respectively.
As to “Hirugen (hirudin 53-64) (Sigma) (from UniProt P09945 60-71) (peptide)”, the Kd was 4250 nM in [6], 478 nM in assay [7], 54 nM in [8] and 731 nM in assay [10]. Moreover, the ΔTm in [9] was 5.8 ° K; in [11], 2.6 ° K; in assay [12] it was 4.6 ° K.
Turning to `OC[C@H]1O[C@@](CO)(O[C@H]2O[C@H](CO)[C@@H](O)[C@H](O)[C@H]2O)[C@@H](O)[C@@H]1O` [D(+)-sucrose], in [1], the “effect on thermal stability” value is “stabilize”.
As to `Nc1ncnc2c1ncn2[C@@H]1O[C@H](COP(=O)(O)OP(=O)(O)OP(=O)(O)O)[C@@H](O)[C@H]1O` [ATP, adenosine triphosphate], the “Tm of the thermal unfolding curve” value in assay [13] ((+)ATP, FIG. 9, control 49.3° C.) was found to be 51.4 °C. Moreover, in assay [13] (FIG. 9), the Kd amounted to 440000 nM and the ΔTm came to 2.1 °C. Besides, the ΔTm in assay [13] (setting [17]) is listed as 2.2 (±0.4) ° C. Moreover, in [14], the ΔTm at 10000 µM was -0.44 °C.
For `O=P(O)(O)OP(=O)(O)OP(=O)(O)O` [tri-polyphosphate], the “thermal shift of D(II) FGFR1” value in assay [1] (largest shift) was “about 11 °C”.
In the case of `Nc1nc2c(c(=O)[nH]1)N=C(CNc1ccc(C(=O)N[C@@H](CCC(=O)O)C(=O)O)cc1)CN2` [FAH2, dihydrofolic acid], the ΔTm in [2] (100 μM) is reported as −1.8 (±0.5). Further, the ΔTm at 100 µM in assay [5] amounted to 3.62 °C.
Consider `O=C[C@H](O)[C@@H](O)[C@H](O)[C@H](O)CO` [D(+)-glucose], for which the “effect on thermal stability” value in assay [1] is on record as “stabilize”.
For the compound `NC(=O)C1=CN([C@@H]2O[C@H](COP(=O)(O)OP(=O)(O)OC[C@H]3O[C@@H](n4cnc5c(N)ncnc54)[C@H](OP(=O)(O)O)[C@@H]3O)[C@@H](O)[C@H]2O)C=CC1` [NADPH, nicotinamide adenine dinucleotide phosphate-reduced form], the “ΔTm of ligand complexed with DHFR” value in assay [3] is given as 9.7 degrees; in assay [4], 11.9 degrees. Also, the “Tm of the thermal unfolding curve” value in assay [15] ((+) NADPH 10 mM, control 50.8° C.) is 53.8 °C. Besides, the Kd in [15] stood at 700 nM. Moreover, the ΔTm in assay [15] (NADPH 10 mM) came out at 3 °C.
With `CN(Cc1cnc2nc(N)nc(N)c2n1)c1ccc(C(=O)N[C@@H](CCC(=O)O)C(=O)O)cc1` [Methotrexate, methotrexate], the ΔTm in assay [2] (100 μM) is 1.0 (±0.4). Besides, the ΔTm at 100 µM in assay [5] is 0.9 °C.
In the case of `Nc1ncnc2c1ncn2[C@@H]1O[C@H](COP(=O)(O)OP(=O)(O)OP(O)(O)=S)[C@@H](O)[C@H]1O` [ATP-γ-S, adenosinetriphosphate-γ-S], the ΔTm in [13] (setting [17]) is 0.0 (±0.2) ° C; in assay [14], 0.8 (±0.11) ° C; in [16] (3′–5′ cAMP Protein kinase, 10 mM, standard deviation in parentheses), 5.6 (±1.7) ° C; in assay [16] (FIG. 10), 5.6 °C. The “Tm of the thermal unfolding curve” value in assay [16] ((+) ATP-γ-S, FIG. 10, control 46.2° C.) is 51.8 °C. Moreover, the Kd in assay [16] (FIG. 10) came out at 200000 nM.
